Measurements reported in US9963464B2, “Macrocyclic compounds” (Bayer Pharma Aktiengesellschaft, priority 2014, dated 2018).

Legend:
[1] = biological target: T1, human PTEFb (CDK9/Cyclin T1) (Homo sapiens, UniProt P50750); experiment: Surface plasmon resonance PTEFb; assay type: binding; details: SPR; for koff: 25° C., below 5E-5 s^-1 not resolvable, read-out: Dissociation rate constant koff; for Target resident time: 1/koff
T1 construct: purchased ProQinase, Freiburg, Germany
Text: 8. Surface Plasmon Resonance PTEFb
The term “surface plasmon resonance”, as used herein, refers to an optical phenomenon that allows for the analysis of the reversible associations of biological molecules in real time within a biosensor matrix, for example using the Biacore® system (GE Healthcare Biosciences, Uppsala, Sweden). Biacore® uses the optical properties of surface plasmon resonance (SPR) to detect alterations in the refractive index of a buffer, which changes as molecules in solution interact with the target immobilized on the surface. In brief, proteins are covalently bound to the dextran matrix at a known concentration and a ligand for the protein is injected through the dextran matrix. Near infrared light, directed onto the opposite side of the sensor chip surface is reflected and also induces an evanescent wave in the gold film, which in turn, causes an intensity dip in the reflected light at a particular angle known as the resonance angle. If the refractive index of the sensor chip surface is altered (e.g. by compound binding to the bound protein) a shift occurs in the resonance angle. This angle shift can be measured.
The term “KD”, as used herein, is intended to refer to the equilibrium dissociation constant of a particular compound/target protein complex.
The term “koff”, as used herein, is intended to refer to the off-rate, i.e. the dissociation rate constant of a particular compound/target protein complex.
The term “target residence time”, as used herein, is intended to refer to the inverse of the rate of dissociation rate constant (1/koff) of a particular compound/target protein complex.
The ability of the compounds according to the invention to bind human PTEFb may be determined using surface plasmon resonance (SPR). KD values and koff values may be measured using a Biacore® T200 instrument (GE Healthcare, Uppsala, Sweden).
For SPR measurements, recombinant human PTEFb (CDK9/Cyclin T1 recombinant human active protein kinase purchased from ProQinase, Freiburg, Germany) is immobilized using standard amine coupling (Johnsson B et al, Anal Biochem. 1991 Nov. 1; 198(2):268-77). Briefly, carboxymethylated dextran biosensor chips (CM7, GE Healthcare) are activated with N-ethyl-N′-(3-dimethylaminopropyl)-carbodiimide hydrochloride (EDC) and N-hydroxysuccinimide (NHS) according to the supplier's instructions. Human PTEFb is diluted in 1×HBS-EP+(GE Healthcare) into 30 μg/ml and injected on the activated chip surface. Subsequently, a 1:1 solution of 1 M ethanolamine-HCl (GE Healthcare) and 1×HBS-EP is injected to block unreacted groups, resulting in approximately 4000 response units (RU) of immobilized protein. A reference surface is generated by treatment with NHS-EDC and ethanolamine-HCl. Compounds are dissolved in 100% dimethylsulfoxide (DMSO, Sigma-Aldrich, Germany) to a concentration of 10 mM and subsequently diluted in running buffer (1×HBS-EP+pH 7.4 [generated from HBS-EP+Buffer 10× (GE Healthcare): 0.1 M HEPES, 1.5 M NaCl, 30 mM EDTA and 0.5% v/v Surfactant P20], 1% v/v DMSO). For kinetic measurements, four-fold serial dilutions of compound (0.39 nM to 100 nM) are injected over immobilized protein. Binding kinetics is measured at 25° C. with a flow rate of 50 μl/min in running buffer. Compound concentrations are injected for 60 s followed by a dissociation time of 1800 s. The resulting sensorgrams are double-referenced against the reference surface as well as against blank injections.
The double-referenced sensorgrams are fit to a simple reversible Langmuir 1:1 reaction mechanism as implemented in the Biacore® T200 evaluation software 2.0 (GE Healthcare). In cases were full compound dissociation has not occurred at the end of the dissociation phase, the Rmax parameter (response at saturation) is fit as local variable. In all other cases, Rmax is fit as global variable.

Caco-2 permeation assay = assay type: in vitro ADME; details: human, pH 7.2, Caco-2 monolayer, 2 μM test compound; for Papp A→B at 2 h, 2 μM: read-out: Papp A-B (Mari); for Papp B→A at 2 h, 2 μM: read-out: Papp B-A (Mari); for efflux ratio at 2 h, 2 μM: read-out: Efflux ratio (Papp B-A/Papp A-B)
Protocol: 5. Caco-2 Permeation Assay:
Caco-2 cells (purchased from DSMZ Braunschweig, Germany) were seeded at a density of 4.5×10^4 cells per well on 24 well insert plates, 0.4 μm pore size, and grown for 15 days in DMEM medium supplemented with 10% fetal bovine serum, 1% GlutaMAX (100×, GIBCO), 100 U/mL penicillin, 100 μg/mL streptomycin (GIBCO) and 1% non essential amino acids (100×). Cells were maintained at 37° C. in a humidified 5% CO2 atmosphere. Medium was changed every 2-3 day. Before running the permeation assay, the culture medium was replaced by a FCS-free hepes-carbonate transport buffer (pH 7.2). For assessment of monolayer integrity the transepithelial electrical resistance (TEER) was measured. Test compounds were predissolved in DMSO and added either to the apical or basolateral compartment in final concentration of 2 μM in transport buffer. Before and after 2 h incubation at 37° C. samples were taken from both compartments. Analysis of compound content was done after precipitation with methanol by LC/MS/MS analysis. Permeability (Papp) was calculated in the apical to basolateral (A→B) and basolateral to apical (B→A) directions. The apparent permeability was calculated using following equation: Papp=(Vr/Po)(1/S)(P2/t) Where Vr is the volume of medium in the receiver chamber, Po is the measured peak area or height of the test drug in the donor chamber at t=o, S the surface area of the monolayer, P2 is the measured peak area of the test drug in the acceptor chamber after 2 h of incubation, and t is the incubation time. The efflux ratio basolateral (B) to apical (A) was calculated by dividing the Papp B-A by the Papp A-B. In addition the compound recovery was calculated.

rat hepatocytes = experiment: In vitro metabolic stability in rat hepatocytes; assay type: in vitro ADME; details: 1 μM
Protocol: 6. Investigation of In Vitro Metabolic Stability in Rat Hepatocytes
Hepatocytes from Han Wistar rats were isolated via a 2-step perfusion method. After perfusion, the liver was carefully removed from the rat: the liver capsule was opened and the hepatocytes were gently shaken out into a Petri dish with ice-cold Williams medium E (purchased from Sigma Aldrich Life Science, St Louis, Mo.). The resulting cell suspension was filtered through sterile gaze in 50 ml falcon tubes and centrifuged at 50×g for 3 min at room temperature. The cell pellet was resuspended in 30 ml WME and centrifuged through a Percoll® gradient for 2 times at 100×g. The hepatocytes were washed again with Williams' medium E (WME) and resuspended in medium containing 5% Fetal calf serum (FCS, purchased from Invitrogen, Auckland, NZ). Cell viability was determined by trypan blue exclusion.
For the metabolic stability assay liver cells were distributed in WME containing 5% FCS to glass vials at a density of 1.0×10^6 vital cells/ml. The test compound was added to a final concentration of 1 μM. During incubation, the hepatocyte suspensions were continuously shaken and aliquots were taken at 2, 8, 16, 30, 45 and 90 min, to which equal volumes of cold acetonitrile were immediately added. Samples were frozen at −20° C. over night, after subsequently centrifuged for 15 minutes at 3000 rpm and the supernatant was analyzed with an Agilent 1200 HPLC-system with LCMS/MS detection.
The half-life of a test compound was determined from the concentration-time plot. From the half-life the intrinsic clearances were calculated.

T1 sequence (P50750 whole entry): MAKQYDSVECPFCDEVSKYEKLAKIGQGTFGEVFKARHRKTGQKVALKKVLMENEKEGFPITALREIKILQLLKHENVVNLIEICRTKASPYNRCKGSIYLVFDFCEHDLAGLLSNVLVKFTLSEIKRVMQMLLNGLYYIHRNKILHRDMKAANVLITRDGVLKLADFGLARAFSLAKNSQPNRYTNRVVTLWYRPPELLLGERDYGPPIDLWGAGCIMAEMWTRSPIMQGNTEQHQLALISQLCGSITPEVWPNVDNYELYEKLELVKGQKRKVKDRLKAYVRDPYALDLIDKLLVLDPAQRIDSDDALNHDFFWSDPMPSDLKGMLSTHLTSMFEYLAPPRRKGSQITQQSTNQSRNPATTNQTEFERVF
T1 sequence (O60563 whole entry partner): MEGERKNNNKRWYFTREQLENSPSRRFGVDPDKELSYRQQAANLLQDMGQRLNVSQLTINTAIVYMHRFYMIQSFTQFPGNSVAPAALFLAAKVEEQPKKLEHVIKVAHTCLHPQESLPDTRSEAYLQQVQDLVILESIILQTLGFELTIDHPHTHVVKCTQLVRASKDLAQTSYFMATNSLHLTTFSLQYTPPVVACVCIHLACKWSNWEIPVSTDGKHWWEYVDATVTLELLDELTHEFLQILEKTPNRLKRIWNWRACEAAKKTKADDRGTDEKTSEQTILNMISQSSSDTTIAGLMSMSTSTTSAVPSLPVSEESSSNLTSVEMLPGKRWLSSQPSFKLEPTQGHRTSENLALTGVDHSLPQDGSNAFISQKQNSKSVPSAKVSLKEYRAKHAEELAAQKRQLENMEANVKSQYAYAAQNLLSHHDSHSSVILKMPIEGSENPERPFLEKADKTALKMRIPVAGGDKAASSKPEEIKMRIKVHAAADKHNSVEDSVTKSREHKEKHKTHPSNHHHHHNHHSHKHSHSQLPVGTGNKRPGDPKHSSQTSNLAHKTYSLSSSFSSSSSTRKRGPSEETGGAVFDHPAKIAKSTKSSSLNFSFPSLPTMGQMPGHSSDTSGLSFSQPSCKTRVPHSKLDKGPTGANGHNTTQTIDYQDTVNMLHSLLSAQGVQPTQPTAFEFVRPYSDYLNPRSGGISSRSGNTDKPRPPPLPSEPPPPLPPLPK

| koff [1] | Target resident time [1] | Papp A→B at 2 h, 2 μM (Caco-2 permeation assay) | Papp B→A at 2 h, 2 μM (Caco-2 permeation assay) | efflux ratio at 2 h, 2 μM (Caco-2 permeation assay) | maximal calculated oral bioavailability (Fmax) based on stability data in rat hepatocytes (rat hepatocytes) | SMILES |
| --- | --- | --- | --- | --- | --- | --- |
| < 5e-05 s⁻¹ | >333 min | 13.9 ×10⁻⁶ cm/s | 19.7 ×10⁻⁶ cm/s | 1.4 | 69% | CS(=N)(=O)Cc1cc2cc(c1)OCCCCOc1cc(F)ccc1-c1nc(ncc1F)N2 (racemic) [Example 1, (rac)-16,20-Difluoro-9-[(S-methylsulfonimidoyl)methyl]-2,3,4,5-tetrahydro-12H-13,17-(azeno)-11,7-(metheno)-1,6,12,14-benzodioxadiazacyclononadecine] |
| 9.3e-05 s⁻¹ | 179.2 min | 4.7 ×10⁻⁶ cm/s | 4.3 ×10⁻⁶ cm/s | 0.91 | 62% | CS(=N)(=O)Cc1cc2nc(c1)OCCCOc1cc(F)ccc1-c1cc(ncc1F)N2 (racemic) [Example 5, (rac)-15,19-Difluoro-8-[(S-methylsulfonimidoyl)methyl]-3,4-dihydro-2H,11H-10,6-(azeno)-12,16-(metheno)-1,5,11,13-benzodioxadiazacyclooctadecine] |
| < 5e-05 s⁻¹ | >333 min |  |  |  | 76% | CS(=N)(=O)Cc1cc2cc(c1)OCCCOc1cc(F)ccc1-c1nc(ncc1F)N2 (racemic) [Example 15, (rac)-15,19-difluoro-8-[(S-methylsulfonimidoyl)methyl]-3,4-dihydro-2H,11H-12,16-(azeno)-10,6-(metheno)-1,5,11,13-benzodioxadiazacyclooctadecine] |
|  |  | 0.4 ×10⁻⁶ cm/s | 26.2 ×10⁻⁶ cm/s | 74.5 |  | CS(=O)(Cc1cc2nc(c1)OCCCOc1cc(F)ccc1-c1cc(ncc1F)N2)=NC(=O)OCCN (racemic) [Example 25, (rac)-2-aminoethyl [{[15,19-difluoro-3,4-dihydro-2H,11H-10,6-(azeno)-12,16-(metheno)-1,5,11,13-benzodioxadiazacyclooctadecin-8-yl]methyl}(methyl)oxido-λ^6-sulfanylidene]carbamate] |
| < 5e-05 s⁻¹ | >333 min | 6.7 ×10⁻⁶ cm/s | 5.5 ×10⁻⁶ cm/s | 0.8 |  | CS(=O)(=O)Cc1cc2nc(c1)OCCCOc1cc(F)ccc1-c1cc(ncc1F)N2 [Example 8, 15,19-difluoro-8-[(methylsulfonyl)methyl]-3,4-dihydro-2H,11H-10,6-(azeno)-12,16-(metheno)-1,5,11,13-benzodioxadiazacyclooctadecine] |
|  |  | 1.2 ×10⁻⁶ cm/s | 7.6 ×10⁻⁶ cm/s | 6.5 |  | NCCS(=O)(=O)Cc1cc2nc(c1)OCCCOc1cc(F)ccc1-c1cc(ncc1F)N2 [Example 26, 2-({[15,19-difluoro-3,4-dihydro-2H,11H-10,6-(azeno)-12,16-(metheno)-1,5,11,13-benzodioxadiazacyclooctadecin-8-yl]methyl}sulfonyl)ethanamine] |
